pEC50, pIC50: −log10 of the molar value.
How the values were obtained:
[1] = target: T1, cellular DNA polymerase β (Bos taurus, UniProt Q27958); experiment: Effect on cellular DNA polymerase β; assay type: biochemical; conditions: enzyme purified from calf thymus; read-out: ID50 cellular polymerase β
T1 construct: purified from calf thymus; from tissue; host or cells: calf thymus
From the text: (§1) The strong inhibiting effect of 3'-fluoro-substituted deoxynucleotides against HIV-reverse transcriptase can be utilized therapeutically only if the cellular DNA polymerases, especially the DNA polymerase α which is required for the replication of the cellular DNA, remain substantially unaffected. […] The ID50 values for the DNA polymerase β responsible for cellular DNA repair vary between 1,8-15 μm. Both enzymes cellular DNA polymerase α and β were purified from calf thymus and tested according to the method of E. Matthes et al., Biomed. Biochim. Acta 44. K63 (1985).

[2] = target: T2, cellular DNA polymerase α (Bos taurus, UniProt A0AAA9TD94); experiment: Effect on cellular DNA polymerase α; assay type: biochemical; conditions: enzyme purified from calf thymus; read-out: ID50 cellular polymerase α
T2 construct: purified from calf thymus; from tissue; host or cells: calf thymus
T2 sequence (A0AAA9TD94 1-1441): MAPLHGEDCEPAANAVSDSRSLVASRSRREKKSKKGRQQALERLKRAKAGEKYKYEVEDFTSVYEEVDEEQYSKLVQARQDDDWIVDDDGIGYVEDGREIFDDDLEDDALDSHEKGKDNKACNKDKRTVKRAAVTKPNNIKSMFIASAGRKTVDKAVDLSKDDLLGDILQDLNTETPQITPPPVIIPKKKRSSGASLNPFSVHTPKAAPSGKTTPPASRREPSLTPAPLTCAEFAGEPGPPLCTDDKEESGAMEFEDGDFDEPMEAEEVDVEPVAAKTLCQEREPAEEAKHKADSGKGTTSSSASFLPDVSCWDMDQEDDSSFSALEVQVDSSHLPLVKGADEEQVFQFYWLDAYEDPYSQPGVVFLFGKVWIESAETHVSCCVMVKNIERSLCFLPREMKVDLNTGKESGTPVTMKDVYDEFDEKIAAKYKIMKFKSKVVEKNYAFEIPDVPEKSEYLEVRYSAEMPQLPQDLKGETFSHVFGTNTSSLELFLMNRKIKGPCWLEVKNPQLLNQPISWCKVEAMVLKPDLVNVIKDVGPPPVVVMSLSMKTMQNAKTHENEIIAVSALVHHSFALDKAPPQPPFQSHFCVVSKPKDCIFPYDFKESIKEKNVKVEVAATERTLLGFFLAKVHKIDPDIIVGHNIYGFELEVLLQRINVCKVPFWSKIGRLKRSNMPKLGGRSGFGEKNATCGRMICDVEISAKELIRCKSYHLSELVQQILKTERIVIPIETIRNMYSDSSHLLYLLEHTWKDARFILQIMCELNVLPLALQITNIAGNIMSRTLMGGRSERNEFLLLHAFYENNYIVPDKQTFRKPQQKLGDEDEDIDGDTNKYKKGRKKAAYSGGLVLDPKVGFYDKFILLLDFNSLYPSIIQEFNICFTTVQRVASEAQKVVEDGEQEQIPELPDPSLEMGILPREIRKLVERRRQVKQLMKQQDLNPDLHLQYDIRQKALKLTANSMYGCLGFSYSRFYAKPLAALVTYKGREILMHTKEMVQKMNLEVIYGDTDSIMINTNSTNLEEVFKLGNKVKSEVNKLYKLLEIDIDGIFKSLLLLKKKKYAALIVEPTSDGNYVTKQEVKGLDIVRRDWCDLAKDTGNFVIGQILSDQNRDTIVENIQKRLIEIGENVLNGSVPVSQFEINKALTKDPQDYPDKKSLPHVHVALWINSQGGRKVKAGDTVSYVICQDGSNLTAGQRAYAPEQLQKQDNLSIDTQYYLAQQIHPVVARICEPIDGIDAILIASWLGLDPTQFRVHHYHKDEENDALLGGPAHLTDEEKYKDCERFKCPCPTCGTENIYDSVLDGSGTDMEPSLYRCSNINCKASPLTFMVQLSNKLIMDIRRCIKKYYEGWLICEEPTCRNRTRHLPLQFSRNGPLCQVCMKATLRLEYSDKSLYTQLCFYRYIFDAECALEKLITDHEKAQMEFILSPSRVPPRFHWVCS
From the text: as §1

[3] = target: T3, HIV-associated reverse transcriptase (HIV-RT) (Human immunodeficiency virus type 1 group M subtype B, UniProt P04585); experiment: Inhibition of HIV-associated reverse transcriptase (polymerization of artificial templates); assay type: biochemical
T3 construct: HIV-associated reverse transcriptase (HIV-RT)
From the text: At first the triphosphates of some compounds according to formula I were investigated for their ability to inhibit the polymerization of artificial templates (such as polyAoligodT and polyColigodG) catalyzed by HIV-associated reverse transcriptase (HIV-RT) according to the method described by A. D. Hoffman et al., Virology 147, 326, 1985. […] FdTTP, FdUTP and FdGTP are among the strongest inhibitors found so far for HIV-RT. In comparison the ID50 for 3'-azidothymidinetriphosphate was estimated under our conditions to be about […].

[4] = target: RLV-associated reverse transcriptase; experiment: Inhibition of RLV-associated reverse transcriptase; assay type: biochemical, Rauscher murine leukemia virus
[5] = tested on: REH acute lymphatic leukemia; experiment: Inhibition of proliferation of REH cells; assay type: cell-based; conditions: Homo sapiens, dose required to reduce the cell number by 50%, read-out: CD50 (the source's name)
From the text: (§2) Originally FTdR was developed as a cytostatic agent (P. Langen et al., Acta biol. med. Germ. 23, 759, 1969; and U.S. Pat. No. 3,775,397) and, therefore, its cytostatic efficacy has been examined in extensive prior studies. […] Ehrlich-mouse-ascites-carcinoma cells (EMAC) represents an exception to that finding, and this is probably connected to its high capability of phosphorylation of FTdR, which is 10 times higher than in human cells. The fast reversibility of the cytostatic effects on EMAC cells was regarded as a special property of this compound (P. Langen et al., Europ. J. Cancer. 14. 349, 1978). The antiproliferative effect of FTdR and FddUrd, and in comparison thereto of N3 -TdR were tested on human cell lines with regard to a possible use in humans. […] When FTdR is compared to N3 -TdR. The effects are very similar, however somewhat lower in each case for N3 -TdR than for FTdR.
(§3) CD50 : inhibitory dose required to reduce the cell number by 50%

[6] = tested on: K-562 acute myeloic leukemia; experiment: Inhibition of proliferation of K-562 cells; assay type: cell-based; conditions: Homo sapiens, K562; dose required to reduce the cell number by 50%, K-562; read-out: CD50 (the source's name)
From the text: as §2, §3

[7] = tested on: H9 immortalized T-cells; experiment: Inhibition of proliferation of H9 cells; assay type: cell-based; conditions: Homo sapiens, T-cell; dose required to reduce the cell number by 50%, H9; read-out: CD50 (the source's name)
From the text: as §2, §3

[8] = in vitro; conditions: human, mt-4 cells
Procedure: (§4) Under in vitro conditions immortalized T-lymphocytes can be killed within few days by the cytopathic effect of HIV. […] For this purpose about 20,000 MT-4 cells (Harada et al. Science 229, 563 (1985)) Were infected with HIV (titer: 0.04 m.o.i.) and incubated in the presence or absence of varying concentrations of compounds according to formula I, with 10% fetal calf serum (FCS) in 200 μl RPMI medium. After 6 days of incubation the viable cells were counted that were excluded from trypan blue staining.

[9] = tested on: HIV; experiment: Inhibition of the cytopathic effect of HIV on MT-4 cells; assay type: cell-based; conditions: Human immunodeficiency virus 1, MT4, 144 h; MT-4 cells, 6 days of incubation; read-out: 50% antiviral dose (ED50)
Procedure: as §4

[10] = tested on: K-37 immortalized T-cells; experiment: Inhibition of proliferation of K-37 cells; assay type: cell-based; conditions: Homo sapiens, T-cell; dose required to reduce the cell number by 50%, K-37; read-out: CD50 (the source's name)
From the text: as §2, §3

**Q.** With `Cc1cn([C@H]2C[C@H](F)[C@@H](COP(=O)(O)OP(=O)(O)OP(=O)(O)O)O2)c(=O)[nH]c1=O` [FdTTP, 2'-3'-dideoxy-3'-fluorothymidine-5'-triphosphate] as the compound, how does the pIC50 [1] read?
**A.** Its pIC50 is 5.66.

**Q.** And the pIC50 [2]?
**A.** Its pIC50 is < 3.70.

**Q.** What about the “mode of action (type of inhibition)” value [3] of the same compound?
**A.** The value was “competitive type of inhibition”.

**Q.** What about the pIC50 ([3]; read-out: ID50 HIV-associated reverse transcriptase) of the same compound?
**A.** The pIC50 was 7.30.

**Q.** And the “ID50 RLV-associated reverse transcriptase” value [4]?
**A.** The value was 0.5 µM.

**Q.** And the “RLV-associated RT less sensitive to the inhibitor than HIV-associated RT” value ([4]; ratio of ID50 values)?
**A.** The value was 10 times.

**Q.** With `O=c1ccn([C@H]2C[C@H](F)[C@@H](CO)O2)c(=O)[nH]1` [FddUrd, 2'-3'-dideoxy-3'-fluorouridine] as the compound, how does the pIC50 [5] read?
**A.** The pIC50 was < 2.05.

**Q.** And the pIC50 [6]?
**A.** Its pIC50 is < 3.00.

**Q.** What about the pIC50 [7] of the same compound?
**A.** The pIC50 was < 2.60.

**Q.** What about the CC50 at 144 h [8] of the same compound?
**A.** The CC50 at 144 h was 75 µM.

**Q.** And the pEC50 [9]?
**A.** Its pEC50 is 6.56.

**Q.** What about the pIC50 [10] of the same compound?
**A.** Its pIC50 is < 3.00.
